The subject of the assay is Aβ42 production. As to the kind of experiment: Quantification of Aβ peptide in culture of neurons from rat fetus brain (Aβ42 ELISA). The format is cell-based. The note with it: Neuron, 72 h, rat primary neuronal culture (embryonic day 18 Wistar rat cerebral cortex), medium collected three days after addition of compound, read-out: Aβ42 production reducing effect IC50. As for the experimental part: Quantification of Aβ Peptide in Culture of Neurons from Rat Fetus Brain
Primary neuronal cultures were prepared from the cerebral cortex of embryonic day 18 Wistar rats (Charles River Japan, Yokohama, Japan). Specifically, the embryos were aseptically removed from pregnant rats under ether anesthesia. The brain was isolated from the embryo and immersed in an ice-cold L-15 medium (such as Invitrogen Corp. Cat #11415-064, Carlsbad, Calif., USA, or SIGMA L1518). The cerebral cortex was collected from the isolated brain under a stereoscopic microscope. The cerebral cortex fragments collected were enzymatically treated in an enzyme solution containing 0.25% trypsin (Invitrogen Corp. Cat #15050-065, Carlsbad, Calif., USA) and 0.01% DNase (Sigma D5025, St. Louis, Mo., USA) at 37° C. for 30 minutes to disperse the cells. Here, the enzymatic reaction was stopped by adding inactivated horse serum to the solution. The enzymatically treated solution was centrifuged at 1,500 rpm for five minutes to remove the supernatant. 5 to 10 ml of a medium was added to the resulting cell mass. Neurobasal medium (Invitrogen Corp. Cat #21103-049, Carlsbad, Calif., USA) supplemented with 2% B27 supplement (Invitrogen Corp. Cat #17504-044, Carlsbad, Calif., USA), 25 μM 2-mercaptoethanol (2-ME, WAKO Cat #139-06861, Osaka, Japan), 0.5 mM L-glutamine (Invitrogen Corp. Cat #25030-081, Carlsbad, Calif., USA), and Antibiotics-Antimycotics (Invitrogen Corp. Cat #15240-062, Carlsbad, Calif., USA) was used as the medium (Neurobasal/B27/2-ME). However, the above Neurobasal medium not supplemented with 2-ME (Neurobasal/B27) was used for the assay. The cells were redispersed by mild pipetting of the cell mass to which the medium was added. The cell dispersion was filtered through a 40-μm nylon mesh (Cell Strainer, Cat #35-2340, Becton Dickinson Labware, Franklin Lakes, N.J., USA) to remove the remaining cell mass, and thus a neuronal cell suspension was obtained. The neuronal cell suspension was diluted with the medium and then plated in a volume of 100 μl/well at an initial cell density of 5×10^5 cells/cm^2 in a 96-well polystyrene culture plate pre-coated with poly-L or D-lysine (Falcon Cat #35-3075, Becton Dickinson Labware, Franklin Lakes, N.J., USA coated with poly-L-lysine using the method shown below, or BIOCOAT™ cell environments Poly-D-lysine cell ware 96-well plate, Cat #35-6461, Becton Dickinson Labware, Franklin Lakes, N.J., USA). Poly-L-lysine coating was carried out as follows. 100 μg/ml of a poly-L-lysine (SIGMA P2636, St. Louis, Mo., USA) solution was aseptically prepared with a 0.15 M borate buffer (pH 8.5). […] of the solution was added to the 96-well polystyrene culture plate and incubated at room temperature for one or more hours or at 4° C. overnight or longer. Thereafter, the coated 96-well polystyrene culture plate was washed with sterile water four or more times, and then dried or rinsed with, for example, sterile PBS or medium, and used for cell plating. The plated cells were cultured in the culture plate at 37° C. in 5% CO2-95% air for one day. Then, the total amount of the medium was replaced with a fresh Neurobasal/B27/2-ME medium, and then the cells were cultured for further three days.
The drug was added to the culture plate on Day 4 of culture as follows. The total amount of the medium was removed from the wells, and 180 μl/well of Neurobasal medium not containing 2-ME and containing 2% B-27 (Neurobasal/B27) was added thereto. A solution of the test compound in dimethyl sulfoxide (hereinafter abbreviated as DMSO) was diluted with Neurobasal/B27 to a concentration 10-fold higher than the final concentration. 20 μl/well of the dilution was added to and sufficiently mixed with the medium. The final DMSO concentration was 1% or less. Only DMSO was added to the control group.
The cells were cultured for three days after addition of the compound, and the total amount of the medium was collected. […]
Background: In an ELISA, binding on a coated surface is turned into a signal by an enzyme label.
What is called IC50 is the point on the concentration scale where inhibition reaches its midpoint. On to `N#Cc1ccc(C(=O)Nc2ccc(F)c([C@]34CO[C@@H](CF)C[C@H]3CSC(N)=N4)c2)nc1` [Example 44, N-[3-((4aR,6R,8aS)-2-amino-6-fluoromethyl-4,4a,5,6-tetrahydro-7-oxa-3-thia-1-azanaphthalen-8a-yl)-4-fluorophenyl]-5-cyanopyridine-2-carboxamide], for which the half-inhibitory concentration (IC50) was 0.7 nM.
As to `NC1=N[C@@]2(c3cc(NC(=O)c4cnc(OC(F)F)cn4)ccc3F)COC[C@@H](F)[C@H]2CS1` [Example 22, N-[3-((4aS,5S,8aS)-2-amino-5-fluoro-4,4a,5,6-tetrahydro-7-oxa-3-thia-1-azanaphthalen-8a-yl)-4-fluorophenyl]-5-difluoromethoxypyrazine-2-carboxamide], the concentration for half-maximal inhibition (IC50) turned out to be 4 nM.
Next, `NC1=N[C@@]2(c3cc(NC(=O)c4ccc(OC(F)F)cn4)ccc3F)COC[C@@H](F)[C@H]2CS1` [Example 20, N-[3-((4aS,5S,8aS)-2-amino-5-fluoro-4,4a,5,6-tetrahydro-7-oxa-3-thia-1-azanaphthalen-8a-yl)-4-fluorophenyl]-5-difluoromethoxypyridine-2-carboxamide]: 9 nM.
Then `NC1=N[C@@]2(c3cc(NC(=O)c4cnc(OC(F)F)cn4)ccc3F)CO[C@@H](C(F)(F)F)C[C@H]2CS1` (relative stereo) [Example 36, N-[3-((4aR*,6R*,8aS*)-2-amino-6-trifluoromethyl-4,4a,5,6-tetrahydro-7-oxa-3-thia-1-azanaphthalen-8a-yl)-4-fluorophenyl]-5-difluoromethoxypyrazine-2-carboxamide], with 0.5 nM.
Then `NC1=N[C@@]2(c3cc(NC(=O)c4ncc(F)cc4F)ccc3F)COCC[C@H]2CS1` (single isomer, unassigned) [Example 51, N-[3-((4aR*,8aS*)-2-amino-4,4a,5,6-tetrahydro-7-oxa-3-thia-1-azanaphthalen-8a-yl)-4-fluorophenyl]-3,5-difluoropyridine-2-carboxamide], with 6 nM.
In the case of `NC1=N[C@@]2(c3cc(NC(=O)c4ccc(F)cn4)ccc3F)COCC[C@H]2CS1` (single isomer, unassigned) [Example 53, N-[3-((4aR*,8aS*)-2-amino-4,4a,5,6-tetrahydro-7-oxa-3-thia-1-azanaphthalen-8a-yl)-4-fluorophenyl]-5-fluoropyridine-2-carboxamide], the IC50 was found to be 5.6 nM.
Then `CO[C@H]1COC[C@]2(c3cc(NC(=O)c4ccc(C#N)cn4)ccc3F)N=C(N)SC[C@H]12` (relative stereo) [Example 30, N-[3-((4aS*,5R*,8aS*)-2-amino-5-methoxy-4,4a,5,6-tetrahydro-7-oxa-3-thia-1-azanaphthalen-8a-yl)-4-fluorophenyl]-5-cyanopyridine-2-carboxamide], with 6 nM; and `NC1=N[C@@]2(c3cc(NC(=O)c4cnc(OCF)cn4)ccc3F)CO[C@@H](C(F)(F)F)C[C@H]2CS1` (relative stereo) [Example 39, N-[3-((4aR*,6R*,8aS*)-2-amino-6-trifluoromethyl-4,4a,5,6-tetrahydro-7-oxa-3-thia-1-azanaphthalen-8a-yl)-4-fluorophenyl]-5-fluoromethoxypyrazine-2-carboxamide], with 1 nM.
For the molecule `NC1=N[C@@]2(c3cc(NC(=O)c4ccccn4)ccc3F)CO[C@@H](C(F)(F)F)C[C@H]2CS1` (relative stereo) [Example 38, N-[3-((4aR*,6R*,8aS*)-2-amino-6-trifluoromethyl-4,4a,5,6-tetrahydro-7-oxa-3-thia-1-azanaphthalen-8a-yl)-4-fluorophenyl]-pyridine-2-carboxamide], the IC50 was found to be 3 nM.
Then `NC1=N[C@@]2(c3cc(NC(=O)c4ccc(F)cn4)ccc3F)CO[C@@H](C(F)(F)F)C[C@H]2CS1` (relative stereo) [Example 37, N-[3-((4aR*,6R*,8aS*)-2-amino-6-trifluoromethyl-4,4a,5,6-tetrahydro-7-oxa-3-thia-1-azanaphthlen-8a-yl)-4-fluorophenyl]-5-fluoropyriidne-2-carboxamide], with 2 nM.

The values above are taken from patent publication US20110207723A1, “NOVEL FUSED AMINODIHYDROTHIAZINE DERIVATIVE” (EISAI R&D MANAGEMENT CO., LTD., priority 2008, published 2011).
